Measurements: article PMC5825103 (PLoS ONE, 2018)

Experiments:
[1] = test system: uni-nephrectomised db/db mice; assay: organ protection in db/db uni-nephrectomised mice; format: in vivo; conditions: for plasma K^+ elevations: 4 weeks treatment; for FE K+ end / FE Na+ end / UAE w22 / p-K+ end / u-K+ end / u-Na+ end / u-Na+/K+ end: after 4 weeks treatment; for UAE w18: before treatment, 18 weeks of age; for increased injury (glomerular ECM scoring) from week 18 to 22: four week treatment
Experimental: Obese diabetic male db/db mice (BKS.Cg-Dock7^m +/+ Lepr^db/J homozygotes) and their littermate male db/m mice were obtained from the Jackson Laboratory (Bar Harbor, ME, USA). […] Mice were subjected to right uninephrectomy at 8 weeks of age to hasten the development of diabetic nephropathy as described previously [43]. Db/m mice that received a uninephrectomy at 8 weeks of age served as the operation control. […] All surgery was performed under isoflurane anesthesia, and all efforts were made to minimize suffering.
The blood glucose level and glycosylated hemoglobin (HbA1C) levels were monitored in tail blood samples using a blood glucose meter (Glucometer Elite XL, Bayer Healthcare, Elkhart, IN, USA) and the DC 2000+ HbA1C kit (Bayer Healthcare), respectively, before treatment and at the time of sacrifice. Twenty-four-hour urine was obtained from each mouse after placement in metabolic cages before treatment and at the time of sacrifice. Urine albumin was measured using the DC2000+ microalbumin reagent kit (Bayer Healthcare).
Mice were sacrificed under isoflurane anesthesia. Blood samples were obtained by cardiac puncture for the measurements of plasma compound, K^+ and creatinine concentrations. Plasma K^+ levels were determined on a Radiometer ABL 700 blood gas analyser (Radiometer, Copnchagen DK). Plasma creatinine levels were determined by LC-MS/MS. Urine creatinine was measured by the Jaffe method (Creatinine FS, REF117119910021, DiaSys). Kidneys were perfused through the heart with cold PBS and then excised. One piece of renal cortex was fixed in 10% neutralized formalin for histological staining.
Formalin-fixed renal cortex tissues were subsequently embedded in paraffin. Three-micrometer sections were cut from the tissue blocks and stained with periodic acid-Schiff (PAS). The PAS-positive glomerular matrix was quantitated in a blinded fashion by a computer-assisted method as previously described [43]. At least 20 glomeruli from each individual mouse were assessed. The PAS-positive material area in the mesangium was normalized by that of the total glomerular tuft where the percentage of mesangial matrix occupying each glomerulus area was rated. Glomerular sclerosis index was graded from 0 to 4+ as follows: 0 represents no lesion, 1+ represents sclerosis of <25% of the glomerulus, while 2 =, 3+ and 4+ represent sclerosis of 25% to 50%, >50% to 75%, and >75% of the glomerulus, respectively. A whole kidney average sclerosis index was obtained by averaging scores from all glomeruli on one section.

MR = test system: MR; design: method as in PMID 24464876; conditions: eplerenone vs spironolactone; cited from earlier work
[2] = plasma exposure in rat urine electrolyte excretion model (satellite animals, population PK); conditions: average (90% CI)
Experimental: In the rat urine electrolyte excretion model, satellite pharmacokinetic animals were used with serial plasma sampling to assess drug exposure levels during the study duration. […] Exposure data were analysed using nonlinear mixed effects pharmacokinetic modelling. Based on the final population pharmacokinetic model, the eight hour study window was simulated and mean exposure was retrieved from these simulations. The 90% confidence intervals of the mean exposure levels were obtained by Monte Carlo simulations based on the uncertainty, using the parameter covariance matrix, of pharmacokinetic parameter estimates. 1000 simulations were performed and based on these simulations the 5th, and 95th percentiles were retrieved.

PR-LBD = target: T1, PR-LBD (Homo sapiens, UniProt P06401); assay: filtration radioligand binding (Eurofins Cerep); conditions: competition binding; ± SD
T1 construct: PR-LBD (catalogue number 2341) were performed by Eurofins Cerep SA, France; purchased Eurofins Cerep SA, France 2341
T1 sequence (P06401 679-913 limits assumed): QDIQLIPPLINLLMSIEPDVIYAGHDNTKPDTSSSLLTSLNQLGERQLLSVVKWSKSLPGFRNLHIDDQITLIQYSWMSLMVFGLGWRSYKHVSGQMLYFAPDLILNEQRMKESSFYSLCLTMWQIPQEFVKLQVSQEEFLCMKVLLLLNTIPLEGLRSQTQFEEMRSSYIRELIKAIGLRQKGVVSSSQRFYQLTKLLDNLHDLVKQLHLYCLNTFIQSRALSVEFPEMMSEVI
Experimental: Filtration based radioligand binding assays for human GR-LBD (catalogue number 0469), AR-LBD (catalogue number 0933) and PR-LBD (catalogue number 2341) were performed by Eurofins Cerep SA, France.

[3] = test system: male Sprague Dawley rats on low salt diet; assay: acute urinary electrolyte excretion in salt deprived rats; format: in vivo, rat; conditions: 100 mg kg^-1 AZD9977 co-administered with 10 or 30 mg kg^-1 eplerenone
Experimental: Experimental procedures to assess electrolytes effects in vivo were approved by the local ethics review committee on animal experiments in the Gothenburg region (EA 141-2010). […] Animals had environmental enrichment such as nest pads, nesting box, running ladder and aspen chew sticks. Rats were fed a low salt diet ([…] with 0.02% NaCl, […], Sweden) for 72h prior to dosing to increase endogenous aldosterone levels. […] Immediately following dosing, rats were placed in metabolic cages with free access to drinking water but no food. Urine was collected for 8 hours to determine total electrolyte (Na^+ and K^+) content as well as total urinary volume. Urine was collected at room temperature with no additives. Urine was analyzed for Na^+ and K^+ content on a Radiometer ABL 700 blood gas analyzer (Radiometer, Copenhagen, Denmark).

Structure (SMILES) | plasma K^+ elevations [1] | FE K+ end [1] [%] | FE Na+ end [1] [%] | UAE w22 [1] [µg 24h-1] | p-K+ end [1] [mM] | u-K+ end [1] [mmol/24h] | u-Na+ end [1] [mmol/24h] | u-Na+/K+ end [1] | UAE w18 [1] [µg 24h-1] | increased injury (glomerular ECM scoring) from week 18 to 22 [1] | reduced receptor potency in vitro compared to spironolactone (MR) | Cav,in interval ([2]; oral 3 mg kg^-1, 8 h interval) | Cav,in interval ([2]; oral 10 mg kg^-1, 8 h interval) | Cav,in interval ([2]; oral 30 mg kg^-1, 8 h interval) | Cav,in interval ([2]; oral 100 mg kg^-1, 8 h interval) | Ki (PR-LBD) [µM] | urine albumin excretion (UAE) compared to vehicle treatment ([1]; four week treatment from 18 weeks of age) | Na^+ excretion caused by eplerenone [3]
COC(=O)[C@@H]1CC2=CC(=O)CC[C@]2(C)[C@@]23O[C@@H]2C[C@@]2(C)[C@@H](CC[C@@]24CCC(=O)O4)[C@H]13 [eplerenone] | did not cause plasma K^+ elevations | 22.3 ± 1.0 | 0.27 ± 0.02 | 569 ± 76 | 3.8 ± 0.1 | 0.85 ± 0.10 | 0.40 ± 0.05 | 0.48 ± 0.02 | 892 ± 186 | prevented | 10–20 fold | 0.41 (0.35;0.47) μM | 1.4 (1.2;1.6) μM | 4.1 (3.6;4.7) μM | 13.6 (11.8;15.6) μM |  |  | 
CNC(=O)C[C@H]1COc2cc(F)ccc2N1C(=O)c1ccc2c(c1)NC(=O)CO2 [AZD9977, (S)-2-(7-Fluoro-4-(3-oxo-3,4-dihydro-2H-benzo[b][1, 4]oxazine-6-carbonyl)-3,4-dihydro-2H-benzo[b][1, 4]oxazin-3-yl)-N-methylacetamide] | did not cause plasma K^+ elevations | 20.1 ± 0.9 | 0.24 ± 0.01 | 588 ± 80 | 3.9 ± 0.2 | 0.97 ± 0.10 | 0.45 ± 0.05 | 0.47 ± 0.01 | 797 ± 169 | prevented |  |  |  |  |  | 25.1 | reduced the urine albumin excretion | attenuated the Na^+ excretion caused by eplerenone
